Laboratory results published in patent US8835124B2, “Method for treating cancer with agents that bind phosphorylated CDC27” (The Nemours Foundation, priority 2011, dated 2014).

Key:
Cdc27 = target: T1, Cdc27 (Homo sapiens, UniProt P30260); assay: Pull-down from DAOY cell lysates with curcumin-bound Sepharose beads; type: binding; conditions: two independent bead preparations, vs control beads
T1 construct: endogenous in cells; host or cells: DAOY medulloblastoma cells
Protocol: After washing, unoccupied binding sites were blocked with 1 M ethanolamine by overnight incubation. Low (0.1 M acetate buffer, pH 4) and high (0.1 M Tris-HCl, pH 8, 0.5 M NaCl) pH buffers were used each three times to wash and equilibrate the beads. Control beads were prepared in parallel with curcumin-coupled beads but curcumin was omitted. DAOY cell lysates were prepared in a lysis buffer of 100 mM HEPES, pH 7.6, 300 mM NaCl, 0.1% Triton X-100, 2 mM EDTA, 2 mM EGTA supplemented with phosphatase and protease inhibitors. 500 μg of protein was mixed with 20 μl of curcumin-coupled Sepharose beads and incubated for 3 hours at 4° C. After washing bound proteins were eluted with 1×SDS-PAGE sample buffer and processed for immunoblotting.
DAOY cell lysates were incubated with curcumin-bound Sepharose beads and then subjected to SDS-PAGE and immunoblotting with Cdc27. A BubR1 immunoblot was included as control for non-specific binding. […] The cell lysates were separated by SDS-PAGE and immunoblotted for Cdc27. […] Data represent mean±SEM of three independent experiments.

[1] = system: DAOY medulloblastoma cells; assay: Cell cycle analysis by flow cytometry after release from G1/S block; type: cell-based, human; conditions: for G0/G1 / G2/M / S: DAOY released from G1/S block
Protocol: (§1) DNA was stained with 100 μg/ml propidium iodide (PI) in hypotonic citrate buffer with 20 μg/ml ribonuclease A. Stained nuclei were analyzed for DNA-PI fluorescence using an Accuri C6 flow cytometer (Accuri Cytometers Inc., Ann Arbor, Mich.). Resulting DNA distributions for sub G0/G1, G0/G1, S and G2/M phase of the cell cycle were analyzed with CFlow plus software (Accuri Cytometers Inc).
(§2) For analysis of cell cycle profiles after mitotic block, cells were synchronized with 2 mM thymidine for 24 hours. The block was released for 3 hours and cells were arrested in prometaphase with 100 nM nocodazole for 12 hours. For G1/S arrest, cells were synchronized for 18 hours with 2 mM thymidine, released for 9 hours, followed by a second thymidine arrest for 18 hours. The block was then released in the presence of DMSO or curcumin as indicated and the cells were processed as described above.
as §1, with “software (Accuri Cytometers. Inc).” for “software (Accuri Cytometers Inc).”
as §2, with “above. […] The data from these cell cycle studies are the mean±SEM of three independent experiments.” for “above.”
At 0, 4, 8, 12, 16 and 20 hours, cell cycle progression was analyzed by flow cytometry.

T1 sequence (P30260 1-830 isoform P30260-2): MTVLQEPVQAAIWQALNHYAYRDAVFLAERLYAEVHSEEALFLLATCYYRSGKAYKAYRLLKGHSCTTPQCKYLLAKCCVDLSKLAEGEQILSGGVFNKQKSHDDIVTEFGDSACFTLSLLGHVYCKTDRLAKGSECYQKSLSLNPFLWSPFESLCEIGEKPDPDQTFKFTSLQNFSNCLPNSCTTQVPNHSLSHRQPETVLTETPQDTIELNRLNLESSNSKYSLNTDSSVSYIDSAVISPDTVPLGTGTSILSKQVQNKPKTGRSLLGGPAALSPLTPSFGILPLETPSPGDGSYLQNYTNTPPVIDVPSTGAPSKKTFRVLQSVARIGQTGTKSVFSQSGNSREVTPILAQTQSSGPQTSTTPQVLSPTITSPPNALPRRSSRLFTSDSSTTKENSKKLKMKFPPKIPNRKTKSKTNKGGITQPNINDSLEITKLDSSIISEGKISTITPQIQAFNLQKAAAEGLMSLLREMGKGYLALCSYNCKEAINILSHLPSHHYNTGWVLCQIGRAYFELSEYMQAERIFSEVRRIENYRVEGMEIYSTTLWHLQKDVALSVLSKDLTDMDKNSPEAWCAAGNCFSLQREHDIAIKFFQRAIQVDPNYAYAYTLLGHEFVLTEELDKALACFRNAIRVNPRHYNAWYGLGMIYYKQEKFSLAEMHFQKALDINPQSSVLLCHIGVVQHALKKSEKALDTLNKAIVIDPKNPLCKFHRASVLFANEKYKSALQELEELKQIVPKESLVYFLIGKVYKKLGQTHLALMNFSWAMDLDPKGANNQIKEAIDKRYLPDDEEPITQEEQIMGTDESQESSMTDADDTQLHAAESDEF

In the case of COc1cc(/C=C/C(=O)CC(=O)/C=C/c2ccc(O)c(OC)c2)ccc1O [Curcumin, (E,E)-1,7-bis(4-hydroxy-3-methoxyphenyl)-1,6-heptadiene-3,5-dion], the “pull-down of Cdc27 by curcumin-bound Sepharose beads” value (Cdc27) was “pulled down Cdc27”, the “cells that had not re-entered G0/G1” value ([1]; 20 μM curcumin, 20 hours after removal of the thymidine block) was 56.9% and the “time after release at which cells reached G2/M” value ([1]; DAOY released from G1/S block in the presence of 10 μM curcumin (control 8-12 hours)) was 12 to 16 h. The “time after release at which cells reached G2/M” value ([1]; DAOY released from G1/S block in the presence of 20 μM curcumin (control 8-12 hours)) was 16 to 20 h, the “sub-G0/G1 signal (apoptosis)” value ([1]; DAOY released from G1/S block with curcumin, up to 20 hours) was “no sub-G0/G1 signal, was detected” and the G0/G1 ([1]; 10 μM Curcumin, 0 Hr) was 48.15 ± 0.32%. For the same compound, the G2/M ([1]; 10 μM Curcumin, 0 Hr) was 32.96 ± 1.97%, the S ([1]; 10 μM Curcumin, 0 Hr) was 18.89 ± 2.17% and the G0/G1 ([1]; 10 μM Curcumin, 4 Hr) was 41.92 ± 5.16%. For the same compound, the G2/M ([1]; 10 μM Curcumin, 4 Hr) was 25.88 ± 3.55%, the S ([1]; 10 μM Curcumin, 4 Hr) was 32.13 ± 2.64% and the G0/G1 ([1]; 10 μM Curcumin, 8 Hr) was 24.94 ± 4.83%. The G2/M ([1]; 10 μM Curcumin, 8 Hr) was 35.33 ± 5.04%, the S ([1]; 10 μM Curcumin, 8 Hr) was 39.71 ± 4.45% and the G0/G1 ([1]; 10 μM Curcumin, 12 Hr) was 32.40 ± 8.28%. It also gave a G2/M ([1]; 10 μM Curcumin, 12 Hr) of 44.92 ± 11.40%, an S ([1]; 10 μM Curcumin, 12 Hr) of 22.71 ± 3.49% and a G0/G1 ([1]; 10 μM Curcumin, 16 Hr) of 42.40 ± 6.35%. It also gave a G2/M ([1]; 10 μM Curcumin, 16 Hr) of 34.85 ± 9.11%, an S ([1]; 10 μM Curcumin, 16 Hr) of 22.75 ± 3.63% and a G0/G1 ([1]; 10 μM Curcumin, 20 Hr) of 46.46 ± 2.96%. It also gave a G2/M ([1]; 10 μM Curcumin, 20 Hr) of 29.88 ± 3.86%, an S ([1]; 10 μM Curcumin, 20 Hr) of 23.66 ± 4.26% and a G0/G1 ([1]; 20 μM Curcumin, 0 Hr) of 48.15 ± 0.32%. The G2/M ([1]; 20 μM Curcumin, 0 Hr) was 32.96 ± 1.97%, the S ([1]; 20 μM Curcumin, 0 Hr) was 18.89 ± 2.17% and the G0/G1 ([1]; 20 μM Curcumin, 4 Hr) was 40.18 ± 5.31%. It also gave a G2/M ([1]; 20 μM Curcumin, 4 Hr) of 28.33 ± 1.56%, an S ([1]; 20 μM Curcumin, 4 Hr) of 31.55 ± 3.94% and a G0/G1 ([1]; 20 μM Curcumin, 8 Hr) of 31.66 ± 3.64%. The G2/M ([1]; 20 μM Curcumin, 8 Hr) was 31.58 ± 2.35%, the S ([1]; 20 μM Curcumin, 8 Hr) was 36.76 ± 2.49% and the G0/G1 ([1]; 20 μM Curcumin, 12 Hr) was 21.69 ± 2.77%. For the same compound, the G2/M ([1]; 20 μM Curcumin, 12 Hr) was 40.44 ± 3.95%, the S ([1]; 20 μM Curcumin, 12 Hr) was 37.87 ± 3.29% and the G0/G1 ([1]; 20 μM Curcumin, 16 Hr) was 20.99 ± 2.17%. The G2/M ([1]; 20 μM Curcumin, 16 Hr) was 48.68 ± 5.04%, the S ([1]; 20 μM Curcumin, 16 Hr) was 30.34 ± 4.57% and the G0/G1 ([1]; 20 μM Curcumin, 20 Hr) was 27.44 ± 4.69%. For the same compound, the G2/M ([1]; 20 μM Curcumin, 20 Hr) was 43.06 ± 5.04% and the S ([1]; 20 μM Curcumin, 20 Hr) was 29.53 ± 0.59%.
